Experiments:
MTT viability, MEWO = assay type: cell-based, human; settings: human, MEWO malignant melanoma cells, 1000 µM (IC50 exceeded 1000 µM), read-out: viability ± standard deviation at 1000 µM
Protocol: (§1) Cell lines and in vitro culture conditions: The human promyelocytic leukaemia cell line HL-60 was obtained from the Centre of Molecular and Macromolecular Biology in Łódź, Poland and was cultured in RPMI 1640 medium with 20% heat-inactivated fetal bovine serum (FBS). To reduce spontaneous differentiation, the cells were never allowed to exceed a concentration of 1.0 × 10^6 cells/mL. The human keratinocyte cell line HaCaT was obtained from Cell Lines Service, Germany (CLS) and cultured in DMEM medium with 10% FBS. Human colorectal adenocarcinoma HT29 and normal epithelial IEC-6 cell lines (from ATCC) were cultured in DMEM medium with 10% FBS. The human skin melanoma cell line MEWO (from CLS) was cultured in DMEM:F12 supplemented with 2 mM L-glutamine and 10% FBS. Human fibroblasts from gingiva isolated from original tissue, HFIB-G, (from Provitro) were cultured in Quantum 333 (from Immunique). The media were supplemented with 100 U/mL penicillin and 100 µg/mL streptomycin; all media components were obtained from Life Technologies. The adherent cell lines used in the studies were seeded on microplates before they exceeded 80% of confluence. Cells were cultured at 37 °C in 5% CO2 air atmosphere/95% air atmosphere.
(§2) Cytotoxic activity: The cells (the density for HL-60 was 0.5 × 10^4 cells/100 µL, otherwise it was 1 × 10^4 cells/100 µL) were plated into each well of 96-well microtiter plates and, after their attachment to the plate surface, treated with 10 µL of the indicated concentrations of compounds for 24 h. Viability was determined by MTT assay following the treatment. MTT (3-[4.5-dimethylthiazol-2-yl]-2.5-diphenyltetrazolium bromide; Sigma, St. Louis, MO, USA) solution was added to each well and incubated for another 4 h. The resulting MTT-formazan product was dissolved by the addition of lysis buffer (20% SDS and 50% DMF). The amount of formazan was determined by measuring absorbance at 570 nm with a Synergy 2 microplate reader (BioTek, Winooski, VT, USA) operated by the Gen5 program. The experiments were conducted three times with five replications. The results are expressed as an optical density ratio of the treatment to control. All data are presented as means ± SD.

MTT viability, HT29 = assay type: cell-based, human; settings: human, HT29 colorectal adenocarcinoma cells, 1000 µM (IC50 exceeded 1000 µM), read-out: viability ± standard deviation at 1000 µM
Protocol: as §1, §2

[1] = tested on: Promyelocytic Leukaemia HL-60; assay: MTT viability, HL-60; assay type: cell-based, human; settings: Homo sapiens, HL-60, 24 h, HL-60, MTT, range 10–1000 µM, read-out: half maximal inhibitory concentration (IC50), interpolated
Protocol: as §1, §2

MTT viability, HFIG = assay type: cell-based, human; settings: human, HFIG (HFIB-G) gingival fibroblasts, 1000 µM (IC50 exceeded 1000 µM), read-out: viability ± standard deviation at 1000 µM
Protocol: as §1, §2

MTT viability, HaCaT = assay type: cell-based, human; settings: human, HaCaT keratinocytes, 1000 µM (IC50 exceeded 1000 µM), read-out: viability ± standard deviation at 1000 µM
Protocol: as §1, §2

MTT viability, IEC6 = assay type: cell-based; settings: rat, IEC-6 small intestine epithelial cells, 1000 µM (IC50 exceeded 1000 µM), read-out: viability ± standard deviation at 1000 µM
Protocol: as §1, §2

[2] = tested on: Staphylococcus aureus ATCC 43300; design: method as in doi:10.1002/ffj.3238; settings: data presented by the authors before; cited from earlier work
[3] = tested on: Enterococcus faecalis ATCC 51299; design: method as in doi:10.1002/ffj.3238; settings: data presented by the authors before; cited from earlier work
[4] = tested on: Enterococcus faecium ATCC 35667; design: method as in doi:10.1002/ffj.3238; settings: data presented by the authors before; cited from earlier work
[5] = tested on: Escherichia coli ATCC 25922; design: method as in doi:10.1002/ffj.3238; settings: data presented by the authors before; cited from earlier work
[6] = tested on: Klebsiella pneumoniae ATCC 700603; design: method as in doi:10.1002/ffj.3238; settings: data presented by the authors before; cited from earlier work
[7] = tested on: Acinetobacter baumannii ATCC 19606; design: method as in doi:10.1002/ffj.3238; settings: data presented by the authors before; cited from earlier work
[8] = tested on: human melanoma MDA/MB‑435 cell lines; design: method as in PMID 19084293; settings: cited from earlier work
[9] = tested on: colon carcinoma HCT-8 cells; design: method as in PMID 19084293; settings: cited from earlier work
MTT viability, HL-60 = assay type: cell-based, human; settings: human, HL-60 promyelocytic leukaemia cells, HL-60, MTT, 1000 µM (IC50 exceeded 1000 µM), read-out: viability ± standard deviation at 1000 µM
Protocol: as §1, §2

IC50 [1] [µM] | Compound | viability at 24 h, 1000 µM (MTT viability, MEWO) [%] | viability at 24 h, 1000 µM (MTT viability, HT29) [%] | viability at 24 h, 1000 µM (MTT viability, HFIG) [%] | viability at 24 h, 1000 µM (MTT viability, HaCaT) [%] | viability at 24 h, 1000 µM (MTT viability, IEC6) [%] | Minimum Inhibitory Concentrations MIC [2] [µg/mL] | Minimum Inhibitory Concentrations MIC [3] [µg/mL] | Minimum Inhibitory Concentrations MIC [4] [µg/mL] | Minimum Inhibitory Concentrations MIC [5] [µg/mL] | Minimum Inhibitory Concentrations MIC [6] [µg/mL] | Minimum Inhibitory Concentrations MIC [7] [µg/mL] | toxicity [8] | toxicity [9] | viability at 24 h, 1000 µM (MTT viability, HL-60) [%]
~135 | C=CC(C)(O)CC/C=C(\C)CCC=C(C)C (centres unmarked) [Nerolidol (2), nerolidol, reference compound] | 99 | 103 | 75 | 102 ± 5 | 76 | 48 | 38 | 32 | 46 | 16 | 26 | no toxicity | no toxicity | 
 | CC(=O)CCC=C(C)C(C)CCCC(C)C (centres unmarked) [Compound 8] | 94 | 111 | 81 | 90 | 97 | 38 | 26 | 28 | 18 | 18 | 22 |  |  | 72
 | CC(=O)CCC=CC(C)CCC=C(C)C (centres unmarked) [Compound 7] | 99 | 98 | 92 | 101 | 82 | 26 | 16 | 18 | 16 | 16 | 14 |  |  | 67
 | CC(=O)CCC=C(C)CC(C)CCC=C(C)C (centres unmarked) [Compound 9] | 83 | 107 | 85 | 89 | 76 | 28 | 18 | 14 | 28 | 18 | 16 |  |  | 69
 | CC(=O)CCC=C(C)C(C)CCC=C(C)C (centres unmarked) [Compound 6] | 102 | 102 | 83 | 118 | 95 | 26 | 18 | 16 | 14 | 14 | 12 |  |  | 67
~295 | CC(=O)CCC=C(C)CCC=C(C)C [Geranyl acetone (1), geranyl acetone, reference compound] | 93 | 98 | 82 | 89 | 79 | 48 | 36 | 28 | 26 | 18 | 18 |  |  | 
 | CC(=O)CCC=C(C)C(C)CC(C)CCC=C(C)C (centres unmarked) [Compound 11] | 112 | 92 | 102 | 100 | 81 | 26 | 22 | 18 | 28 | 28 | 14 |  |  | 59
750 | C=CC(C)(O)C(C)CC(C)CCC=C(C)C (centres unmarked) [Compound 17] | 112 | 108 | 87 | 95 | 98 | 48 | 38 | 38 | 46 | 18 | 16 |  |  | 
 | CC(=O)CCC=C(C)CCC(C)CCC=C(C)C (centres unmarked) [Compound 10] | 93 | 103 | 98 | 112 | 78 | 46 | 26 | 18 | 32 | 18 | 16 |  |  | 62
500 | C=CC(C)(O)CCC=C(C)C(C)CCC=C(C)C (centres unmarked) [Compound 12] | 97 | 97 | 110 | 101 | 73 | 48 | 46 | 42 | 40 | 28 | 26 |  |  | 
750 | C=CC(C)(O)CCC=C(C)C(C)CCCC(C)C (centres unmarked) [Compound 14] | 99 | 112 | 99 | 106 | 65 | 48 | 38 | 36 | 38 | 18 | 28 |  |  | 

Source: paper PMC6272674, “Selected Compounds Structurally Related to Acyclic Sesquiterpenoids and Their Antibacterial and Cytotoxic Activity” (Molecules, 2015)
